In patent publication US20230085307A1, “PYRIDAZINONE COMPOUND AND HERBICIDE” (NISSAN CHEMICAL CORPORATION, priority 2019, published 2023):

What was measured:
[1] = system: barnyard grass; assay: Test Example 5: herbicidal effect by foliage application, plastic box (Table 20, symbol H); format: in vivo, barnyard grass (Echinochloa crus-galli); conditions: foliage application, 320 g/ha
Summary of the method: (§1)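 Plants were sown into sterilized diluvial soil under about 1.5 cm cover and kept in a greenhouse at 25° C. to 30° C. Fourteen days on, foliage received an even spray of the diluted emulsion. Herbicidal or crop effect was judged three weeks afterwards.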

[2] = system: lambsquarters; assay: Test Example 5: herbicidal effect by foliage application, plastic box (Table 20, symbol O); format: in vivo, lambsquarters (Chenopodium album); conditions: foliage application, 320 g/ha
Summary of the method: as §1

[3] = system: Italian ryegrass; assay: Test Example 4: herbicidal effect by soil treatment (Table 19, symbol K); format: in vivo, Italian ryegrass (Lolium multiflorum)
Summary of the method: (§2)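 Pre-emergence style soil spray: seeds under ~1.5 cm sterilized diluvial soil received a uniform coat of emulsion diluted to the predetermined herbicide amount. Greenhouse 25–30° C; readout at week three on previously defined criteria.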

[4] = system: windgrass; assay: Test Example 5: herbicidal effect by foliage application, plastic box (Table 20, symbol L); format: in vivo, windgrass (Apera spica-venti); conditions: foliage application, 320 g/ha
Summary of the method: as §1

[5] = system: blackgrass; assay: Test Example 5: herbicidal effect by foliage application, plastic box (Table 20, symbol J); format: in vivo, blackgrass (Alopecurus myosuroides); conditions: foliage application, 320 g/ha
Summary of the method: as §1

[6] = system: wild oat; assay: Test Example 4: herbicidal effect by soil treatment (Table 19, symbol I); format: in vivo, wild oat (Avena fatua)
Summary of the method: as §2

[7] = system: blackgrass; assay: Test Example 4: herbicidal effect by soil treatment (Table 19, symbol J); format: in vivo, blackgrass (Alopecurus myosuroides)
Summary of the method: as §2

[8] = system: southern crabgrass; assay: Test Example 5: herbicidal effect by foliage application, plastic box (Table 20, symbol F); format: in vivo, southern crabgrass (Digitaria ciliaris); conditions: foliage application, 320 g/ha
Summary of the method: as §1

[9] = system: barnyard grass; assay: Test Example 4: herbicidal effect by soil treatment (Table 19, symbol H); format: in vivo, barnyard grass (Echinochloa crus-galli)
Summary of the method: as §2

[10] = system: Chinese sprangletop; assay: Test Example 3: herbicidal effect by foliage application, Wagner pot (Table 18, symbol D); format: in vivo, chinese sprangletop (Leptochloa chinensis)
Summary of the method: (§3)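 Plants were sown in alluvial soil held under 0.1–0.5 cm standing water and grown 14 days in a greenhouse at 25–30 °C. An emulsifiable formulation, water-diluted to the set dose, was then sprayed onto the foliage, and effects were scored three weeks later using previously defined criteria.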

[11] = system: rice flat sedge; assay: Test Example 3: herbicidal effect by foliage application, Wagner pot (Table 18, symbol E); format: in vivo, rice flat sedge (Cyperus iria)
Summary of the method: as §3

[12] = system: green foxtail; assay: Test Example 4: herbicidal effect by soil treatment (Table 19, symbol G); format: in vivo, green foxtail (Setaria viridis)
Summary of the method: as §2

[13] = system: persian speedwell; assay: Test Example 5: herbicidal effect by foliage application, plastic box (Table 20, symbol R); format: in vivo, Persian speedwell (Veronica persica); conditions: foliage application, 320 g/ha
Summary of the method: as §1

[14] = system: windgrass; assay: Test Example 4: herbicidal effect by soil treatment (Table 19, symbol L); format: in vivo, windgrass (Apera spica-venti)
Summary of the method: as §2

[15] = system: green foxtail; assay: Test Example 5: herbicidal effect by foliage application, plastic box (Table 20, symbol G); format: in vivo, green foxtail (Setaria viridis); conditions: foliage application, 320 g/ha
Summary of the method: as §1

[16] = system: velvetleaf; assay: Test Example 5: herbicidal effect by foliage application, plastic box (Table 20, symbol M); format: in vivo, velvetleaf (Abutilon theophrasti); conditions: foliage application, 320 g/ha
Summary of the method: as §1

[17] = system: velvetleaf; assay: Test Example 4: herbicidal effect by soil treatment (Table 19, symbol M); format: in vivo, velvetleaf (Abutilon theophrasti)
Summary of the method: as §2

[18] = system: persian speedwell; assay: Test Example 4: herbicidal effect by soil treatment (Table 19, symbol R); format: in vivo, Persian speedwell (Veronica persica)
Summary of the method: as §2

[19] = system: southern crabgrass; assay: Test Example 4: herbicidal effect by soil treatment (Table 19, symbol F); format: in vivo, southern crabgrass (Digitaria ciliaris)
Summary of the method: as §2

[20] = system: redroot pigweed; assay: Test Example 4: herbicidal effect by soil treatment (Table 19, symbol N); format: in vivo, redroot pigweed (Amaranthus retroflexus)
Summary of the method: as §2

[21] = system: barnyard grass; assay: Test Example 3: herbicidal effect by foliage application, Wagner pot (Table 18, symbol H); format: in vivo, barnyard grass (Echinochloa crus-galli)
Summary of the method: as §3

[22] = system: wild oat; assay: Test Example 5: herbicidal effect by foliage application, plastic box (Table 20, symbol I); format: in vivo, wild oat (Avena fatua); conditions: foliage application, 320 g/ha
Summary of the method: as §1

[23] = system: lambsquarters; assay: Test Example 4: herbicidal effect by soil treatment (Table 19, symbol O); format: in vivo, lambsquarters (Chenopodium album)
Summary of the method: as §2

[24] = system: Italian ryegrass; assay: Test Example 5: herbicidal effect by foliage application, plastic box (Table 20, symbol K); format: in vivo, Italian ryegrass (Lolium multiflorum); conditions: foliage application, 320 g/ha
Summary of the method: as §1

[25] = system: redroot pigweed; assay: Test Example 5: herbicidal effect by foliage application, plastic box (Table 20, symbol N); format: in vivo, redroot pigweed (Amaranthus retroflexus); conditions: foliage application, 320 g/ha, evaluated three weeks after application
Summary of the method: as §1

[26] = system: chickweed; assay: Test Example 5: herbicidal effect by foliage application, plastic box (Table 20, symbol P); format: in vivo, common chickweed (Stellaria media); conditions: foliage application, 320 g/ha, evaluated three weeks after application
Summary of the method: as §1

[27] = system: chickweed; assay: Test Example 4: herbicidal effect by soil treatment (Table 19, symbol P); format: in vivo, common chickweed (Stellaria media); conditions: 320 g/ha
Summary of the method: as §2

[28] = evaluated three weeks after application
[29] = amount of applied herbicide 320 g/ha

SMILES: CCCC(=O)Oc1c(C)nn(C)c(=O)c1-c1c(-c2cccc(OC(C)C)c2)sc2ccc(F)cc12 [2-216]
- herbicidal effect on H: barnyard grass (criteria 0-5) [1, 28]: 4 (Herbicidal rate of 70% or more and less than 90%)
- herbicidal effect on O: lambsquarters (criteria 0-5) [2, 28]: 3 (Herbicidal rate of 40% or more and less than 70%)
- K: Italian ryegrass, herbicidal effect rating [3, 29]: 4 (Herbicidal rate of 70% or more and less than 90%)
- herbicidal effect on L: windgrass (criteria 0-5) [4, 28]: 3 (Herbicidal rate of 40% or more and less than 70%)
- herbicidal effect on J: blackgrass (criteria 0-5) [5, 28]: 0 (Herbicidal rate of 5% or less (almost no effect))
- I: wild oat, herbicidal effect rating [6, 29]: 0 (Herbicidal rate of 5% or less (almost no effect))
- J: blackgrass, herbicidal effect rating [7, 29]: 0 (Herbicidal rate of 5% or less (almost no effect))
- herbicidal effect on F: southern crabgrass (criteria 0-5) [8, 28]: 5 (Herbicidal rate of 90% or more (almost completely withered))
- H: barnyard grass, herbicidal effect rating [9, 29]: 2 (Herbicidal rate of 20% or more and less than 40%)
- herbicidal effect on D: Chinese sprangletop [10, 29]: 3 (Herbicidal rate of 40% or more and less than 70%)
- herbicidal effect on E: rice flat sedge [11, 29]: 4 (Herbicidal rate of 70% or more and less than 90%)
- G: green foxtail, herbicidal effect rating [12, 29]: 2 (Herbicidal rate of 20% or more and less than 40%)
- herbicidal effect on R: persian speedwell (criteria 0-5) [13, 28]: 5 (Herbicidal rate of 90% or more (almost completely withered))
- L: windgrass, herbicidal effect rating [14, 29]: 0 (Herbicidal rate of 5% or less (almost no effect))
- herbicidal effect on G: green foxtail (criteria 0-5) [15, 28]: 5 (Herbicidal rate of 90% or more (almost completely withered))
- herbicidal effect on M: velvetleaf (criteria 0-5) [16, 28]: 3 (Herbicidal rate of 40% or more and less than 70%)
- M: velvetleaf, herbicidal effect rating [17, 29]: 2 (Herbicidal rate of 20% or more and less than 40%)
- R: persian speedwell, herbicidal effect rating [18, 29]: 5 (Herbicidal rate of 90% or more (almost completely withered))
- F: southern crabgrass, herbicidal effect rating [19, 29]: 3 (Herbicidal rate of 40% or more and less than 70%)
- N: redroot pigweed, herbicidal effect rating [20, 29]: 3 (Herbicidal rate of 40% or more and less than 70%)
- herbicidal effect on H: barnyard grass [21, 29]: 5 (Herbicidal rate of 90% or more (almost completely withered))
- herbicidal effect on I: wild oat (criteria 0-5) [22, 28]: 0 (Herbicidal rate of 5% or less (almost no effect))
- O: lambsquarters, herbicidal effect rating [23, 29]: 0 (Herbicidal rate of 5% or less (almost no effect))
- herbicidal effect on K: Italian ryegrass (criteria 0-5) [24, 28]: 4 (Herbicidal rate of 70% or more and less than 90%)
- herbicidal effect on N: redroot pigweed (criteria 0-5) [25]: 5 (Herbicidal rate of 90% or more (almost completely withered))
- herbicidal effect on P: chickweed (criteria 0-5) [26]: 5 (Herbicidal rate of 90% or more (almost completely withered))

SMILES: Cc1nn(C)c(=O)c(-c2c(-c3ccc(OC(F)(F)F)cc3)sc3ccc(F)cc23)c1O [2-045]
- effect on barnyard grass (H) ([1]; 3 weeks after application): 5 (Herbicidal rate of 90% or more (almost completely withered))
- effect on lambsquarters (O) ([2]; 3 weeks after application): 5 (Herbicidal rate of 90% or more (almost completely withered))
- herbicidal effect rating, K: Italian ryegrass ([3]; 320 g/ha): 5 (Herbicidal rate of 90% or more (almost completely withered))
- effect on windgrass (L) ([4]; 3 weeks after application): 5 (Herbicidal rate of 90% or more (almost completely withered))
- effect on blackgrass (J) ([5]; 3 weeks after application): 0 (Herbicidal rate of 5% or less (almost no effect))
- herbicidal effect rating, I: wild oat ([6]; 320 g/ha): 0 (Herbicidal rate of 5% or less (almost no effect))
- herbicidal effect rating, J: blackgrass ([7]; 320 g/ha): 0 (Herbicidal rate of 5% or less (almost no effect))
- effect on southern crabgrass (F) ([8]; 3 weeks after application): 0 (Herbicidal rate of 5% or less (almost no effect))
- herbicidal effect rating, H: barnyard grass ([9]; 320 g/ha): 1 (Herbicidal rate of 5% or more and less than 20%)
- herbicidal effect on D (Chinese sprangletop), rating 0-5 ([10]; 320 g/ha): 2 (Herbicidal rate of 20% or more and less than 40%)
- herbicidal effect on E (rice flat sedge), rating 0-5 ([11]; 320 g/ha): 5 (Herbicidal rate of 90% or more (almost completely withered))
- herbicidal effect rating, G: green foxtail ([12]; 320 g/ha): 4 (Herbicidal rate of 70% or more and less than 90%)
- effect on persian speedwell (R) ([13]; 3 weeks after application): 5 (Herbicidal rate of 90% or more (almost completely withered))
- herbicidal effect rating, L: windgrass ([14]; 320 g/ha): 0 (Herbicidal rate of 5% or less (almost no effect))
- effect on green foxtail (G) ([15]; 3 weeks after application): 5 (Herbicidal rate of 90% or more (almost completely withered))
- effect on velvetleaf (M) ([16]; 3 weeks after application): 5 (Herbicidal rate of 90% or more (almost completely withered))
- herbicidal effect rating, M: velvetleaf ([17]; 320 g/ha): 4 (Herbicidal rate of 70% or more and less than 90%)
- herbicidal effect rating, P: chickweed [27]: 5 (Herbicidal rate of 90% or more (almost completely withered))
- herbicidal effect rating, R: persian speedwell ([18]; 320 g/ha): 5 (Herbicidal rate of 90% or more (almost completely withered))
- herbicidal effect rating, F: southern crabgrass ([19]; 320 g/ha): 3 (Herbicidal rate of 40% or more and less than 70%)
- herbicidal effect rating, N: redroot pigweed ([20]; 320 g/ha): 4 (Herbicidal rate of 70% or more and less than 90%)
- herbicidal effect on H (barnyard grass), rating 0-5 ([21]; 320 g/ha): 5 (Herbicidal rate of 90% or more (almost completely withered))
- effect on wild oat (I) ([22]; 3 weeks after application): 0 (Herbicidal rate of 5% or less (almost no effect))
- herbicidal effect rating, O: lambsquarters ([23]; 320 g/ha): 5 (Herbicidal rate of 90% or more (almost completely withered))
- effect on Italian ryegrass (K) ([24]; 3 weeks after application): 5 (Herbicidal rate of 90% or more (almost completely withered))
